Laboratory results from US7217697B2, “Glucopyranosyloxypyrazole derivative medicinal composition containing the same medicinal use thereof and intermediate therefor” (Kissei Pharmaceutical Co., Ltd., priority 2001, dated 2007).

Legend:
human SGLT1 = target: T1, human SGLT1 (Homo sapiens, UniProt P13866); test: Assay for inhibitory effects on human SGLT1 activity (uptake of methyl-α-D-glucopyranoside); format: cell-based; conditions: CS1-5-11D cells (CHO-K1 stably expressing human SGLT1); uptake of 1 mM 14C-labeled α-MG, 37° C., 1 hour
T1 construct: expressed in transfected cells
T1 sequence (P13866 1-664): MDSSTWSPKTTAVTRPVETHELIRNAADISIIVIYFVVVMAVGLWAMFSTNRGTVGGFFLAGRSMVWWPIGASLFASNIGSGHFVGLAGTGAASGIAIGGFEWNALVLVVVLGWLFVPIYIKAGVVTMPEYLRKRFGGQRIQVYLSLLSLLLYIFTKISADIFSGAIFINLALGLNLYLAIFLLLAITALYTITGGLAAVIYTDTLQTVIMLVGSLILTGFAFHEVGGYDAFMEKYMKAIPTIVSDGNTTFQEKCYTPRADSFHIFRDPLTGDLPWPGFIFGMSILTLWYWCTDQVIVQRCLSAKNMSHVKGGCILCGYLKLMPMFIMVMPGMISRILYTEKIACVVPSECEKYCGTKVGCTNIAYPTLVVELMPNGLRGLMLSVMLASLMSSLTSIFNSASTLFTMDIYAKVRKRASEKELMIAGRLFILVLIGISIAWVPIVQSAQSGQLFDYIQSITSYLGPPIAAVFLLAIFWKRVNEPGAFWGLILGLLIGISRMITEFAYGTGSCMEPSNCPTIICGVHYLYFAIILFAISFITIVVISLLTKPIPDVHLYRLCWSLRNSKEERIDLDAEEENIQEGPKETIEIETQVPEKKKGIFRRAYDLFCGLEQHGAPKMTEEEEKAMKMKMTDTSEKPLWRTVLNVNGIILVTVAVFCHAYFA
Procedure: Assay for Inhibitory Effects on Human SGLT1 Activity
1) Cloning and Construction of the Vector Expressing Human SGLT1
The cDNA library was prepared for PCR amplification by reverse transcription from total RNA deprived from human small intestine (Ori gene) using oligo-dT as a primer. Using this cDNA library as a template, the DNA fragment coding 1 to 2005 bp of human SGLT1 (ACCESSION: M24847), which was reported by Hediger et al., was amplified by PCR method and inserted into the multi-cloning site of pcDNA3.1(−) (Invitrogen). The DNA sequence inserted was perfectly matched to the previously reported sequence of human SGLT1.
2) Establishment of Cell Line Stably Expressing Human SGLT1
The expression vector of human SGLT1 was digested by Sca I into a linear DNA. The linear DNA was transfected into CHO-K1 cells by means of lipofection (Effectene Transfection Reagent: QIAGEN). Neomycin resistant cell lines were selected by culture in the medium containing G418 (1 mg/mL, LIFE TECHNOLOGIES), and then the activity against the uptake of methyl-α-D-glucopyranoside was measured by the method described below. […] CS1-5–11D cells were cultured in the presence of G418 at 200 μg/mL.
3) Measurement of the Inhibitory Activity Against the Uptake of methyl-α-D-glucopyranoside (α-MG)
CS1-5-11D cells were seeded into a 96-well culture plate at a density of 3×10^4 cells/well and cultured for 2 days, and were used in the uptake assay. A mixture of non-labeled (Sigma) and ^14C-labeled α-MG (Amersham Pharmcia Biotec) added to the uptake buffer (pH 7.4; containing 140 mM sodium chloride, 2 mM potassium chloride, 1 mM calcium chloride, 1 mM magnesium chloride, 10 mM 2-[4-(2-hydroxyethyl)-1-piperazinyl]ethane sulfonic acid, and 5 mM tris(hydroxymethyl)aminomethane) at the final concentration of 1 mM. A test compound was dissolved in dimethyl sulfoxide, and then appropriately diluted with distilled water. The test compound solution was added to the uptake buffer containing 1 mM α-MG, and designated as a measurement buffer. For the control group, the measurement buffer without any test compound was prepared. For measuring the basal uptake, a basal buffer which contains 140 mM chorine chloride instead of 140 mM sodium chloride was prepared. After removing the culture medium of CS1-5-11D cells, 180 μL of the pre-treatment buffer (the uptake buffer not containing α-MG) was added to each well and incubated at 37° C. for 10 minutes. After repeating the same treatment, the pre-treatment buffer was removed. To each well was added 75 μL of the measurement buffer or the basal buffer was added and incubated at 37° C. for 1 hour. After removing the measurement buffer, cells were washed twice with 180 μL per well of the washing buffer (the basal buffer containing 10 mM non-labeled α-MG). The cells were solubilized by 75 μL per well of 0.2 mol/L sodium hydroxide. The cell lysates were transferred into PicoPlates (Packard), and then added 150 μL of MicroScint-40 (Packard) and mixed. Radioactivity was measured by means of micro-scintillation counter TopCount (Packard). One hundred % was set to the difference between the uptake in the control group and the basal uptake, and the uptake of methyl α-D-glucopyranoside at each drug concentration were calculated. The drug concentration, at which 50% uptake of methyl α-D-glucopyranoside was inhibited (IC50 value), was calculated using logit plot.

diabetic rats = test: Assay for inhibitory effects on blood glucose level increase in rats (liquid meal tolerance test); format: in vivo; conditions: diabetic rats (nicotinamide/streptozotocin), 10 mg/kg orally, liquid meal 15 kcal/kg, mean±S.E.
Procedure: Assay for Inhibitory Effects on Blood Glucose Level Increase in Rats
1) Preparation of Diabetic Rat Model
Ten weeks old rats were injected nicotinamide (230 mg/kg) intraperitoneally. Fifteen minutes after injection, they were injected streptozotocin (65 mg/kg) intravenously from tail vain under anesthesia with ether. Two weeks later, rats were fasted for 5 hours and then oral glucose tolerance test (2 g/kg) was done.
2) Liquid Meal Tolerance Test
After 16 hours fasted, the diabetic rats were orally administered a test compound (10 mg/kg), which was suspended with 0.5% sodium carboxymethylcellulose (CMC), in the drug-treating group, or 0.5% sodium carboxymethylcellulose (CMC) alone in a control group. Immediately after the compound administration, 15 kcal/kg of liquid meal (No. 038, Conrol diet, assorted with dextrin and maltose; Oriental Yeast Co., Ltd.) was loaded orally. The blood was collected from tail artery immediately before (0 h), at 0.5 and 1 hour after administration, and treated with heparin immediately. The blood was centrifuged, and the plasma was collected to quantify the plasma glucose concentration. The values in the table are presented as the mean±S.E.

Male C57BL/6J mice = test: Acute toxicity test; format: in vivo; conditions: n=5, oral 1 g/kg, observed for 48 hours
Procedure: Male C57BL/6J mice (CLEA Japan, Inc.; 17 weeks old, 20–23 g, n=5) were fasted for 4 hours.

Structure (SMILES): CC(C)c1[nH]nc(O[C@@H]2O[C@H](CO)[C@@H](O)[C@H](O)[C@H]2O)c1Cc1ccccc1OCc1ccccc1 [Example 2, 4-(2-Benzyloxybenzyl)-3-(β-D-glucopyranosyloxy)-5-isopropyl-1H-pyrazole]
- IC50 (human SGLT1): 0.018 µM
- Plasma glucose concentration (diabetic rats; 0 h (pretreatment)): 126 ± 7 mg/dL
- Plasma glucose concentration (diabetic rats; 0.5 h after administration): 194 ± 7 mg/dL
- Plasma glucose concentration (diabetic rats; 1 h after administration): 219 ± 16 mg/dL
- Number of death (Male C57BL/6J mice): 0/5

Structure (SMILES): CC(C)c1c(Cc2ccccc2OCc2ccccc2)c(O[C@@H]2O[C@H](CO)[C@@H](O)[C@H](O)[C@H]2O)nn1CCO [Example 9, 4-(2-Benzyloxybenzyl)-3-(β-D-glucopyranosyloxy)-1-(2-hydroxyethyl)-5-isopropyl-1H-pyrazole]
- IC50 (human SGLT1): 0.008 µM

Structure (SMILES): OCCn1nc(O[C@@H]2O[C@H](CO)[C@@H](O)[C@H](O)[C@H]2O)c(Cc2ccccc2OCc2ccccc2)c1C(F)(F)F [Example 11, 4-(2-Benzyloxybenzyl)-3-(β-D-glucopyranosyloxy)-1-(2-hydroxyethyl)-5-trifluoromethyl-1H-pyrazole]
- IC50 (human SGLT1): 0.013 µM

Structure (SMILES): CC(C)c1[nH]nc(O[C@@H]2O[C@H](CO)[C@@H](O)[C@H](O)[C@H]2O)c1Cc1ccccc1OCc1cccc(O)c1 [Example 12, 3-(β-D-Glucopyranosyloxy)-4-[2-(3-hydroxybenzyloxy)benzyl]-5-isopropyl-1H-pyrazole]
- IC50 (human SGLT1): 0.035 µM

Structure (SMILES): OCCCn1nc(O[C@@H]2O[C@H](CO)[C@@H](O)[C@H](O)[C@H]2O)c(Cc2ccccc2OCc2ccccc2)c1C(F)(F)F [Example 13, 4-(2-Benzyloxybenzyl)-3-(β-D-glucopyranosyloxy)-1-(3-hydroxypropyl)-5-trifluoromethyl-1H-pyrazole]
- IC50 (human SGLT1): 0.03 µM

Structure (SMILES): CC(C)c1[nH]nc(O[C@@H]2O[C@H](CO)[C@@H](O)[C@H](O)[C@H]2O)c1Cc1ccccc1OCc1cccc(Cl)c1 [Example 15, 4-[2-(3-Chlorobenzyloxy)benzyl]-3-(β-D-glucopyranosyloxy)-5-isopropyl-1H-pyrazole]
- IC50 (human SGLT1): 0.001 µM

Structure (SMILES): CCc1c(Cc2ccccc2OCc2ccccc2)c(O[C@@H]2O[C@H](CO)[C@@H](O)[C@H](O)[C@H]2O)nn1CCO [Example 19, 4-(2-Benzyloxybenzyl)-5-ethyl-3-(β-D-glucopyranosyloxy)-1-(2-hydroxyethyl)-1H-pyrazole]
- IC50 (human SGLT1): 0.08 µM

Structure (SMILES): OC[C@H]1O[C@@H](Oc2n[nH]c(C(F)(F)F)c2Cc2ccccc2OCc2ccccc2)[C@H](O)[C@@H](O)[C@@H]1O [Example 21, 4-(2-Benzyloxybenzyl)-3-(β-D-glucopyranosyloxy)-5-trifluoromethyl-1H-pyrazole]
- IC50 (human SGLT1): 0.014 µM

Structure (SMILES): CC(C)c1[nH]nc(O[C@@H]2O[C@H](CO)[C@@H](O)[C@H](O)[C@H]2O)c1Cc1ccccc1OC1CCCCCC1 [Example 51, 4-(2-Cycloheptyloxybenzyl)-3-(β-D-glucopyranosyloxy)-5-isopropyl-1H-pyrazole]
- IC50 (human SGLT1): 0.194 µM
